In brackets after ≈: the same amount, converted by molar mass.
Legend:
[1] = system: Staphylococcus aureus; experiment: Antibacterial activity against methicillin-resistant Staphylococcus aureus CCARM 3114 after 20 hrs by twofold serial broth dilution method; format: functional; conditions: CCARM 3114, 20 h
[2] = system: Enterococcus faecalis; experiment: Antibacterial activity against Enterococcus faecalis KCTC 2011 after 20 hrs by twofold serial broth dilution method; format: functional; conditions: KCTC 2011, 20 h
[3] = system: Staphylococcus aureus; experiment: Antibacterial activity against Staphylococcus aureus KCTC 1621 after 20 hrs by twofold serial broth dilution method; format: functional; conditions: KCTC 1621, 20 h
[4] = Solubility of the compound; format: physicochemical
[5] = system: Escherichia coli; experiment: Antibacterial activity against Escherichia coli after 20 hrs by twofold serial broth dilution method; format: functional
[6] = molecular target: T1, 3-oxoacyl-[acyl-carrier-protein] synthase 3 (Escherichia coli) (UniProt C3TDZ2); experiment: Binding affinity to Escherichia coli KAS3 expressed in Escherichia coli BL21 (DE3) by NMR analysis
T1 sequence (whole entry): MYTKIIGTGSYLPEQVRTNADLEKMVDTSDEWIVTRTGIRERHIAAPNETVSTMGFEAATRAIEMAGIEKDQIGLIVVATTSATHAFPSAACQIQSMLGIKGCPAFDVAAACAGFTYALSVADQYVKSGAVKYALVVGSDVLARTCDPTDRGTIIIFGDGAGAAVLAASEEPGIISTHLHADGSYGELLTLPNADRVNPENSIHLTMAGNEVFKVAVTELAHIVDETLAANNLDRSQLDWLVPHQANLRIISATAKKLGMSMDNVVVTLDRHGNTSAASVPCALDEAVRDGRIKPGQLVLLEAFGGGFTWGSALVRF

[7] = system: Enterococcus faecalis; experiment: Antibacterial activity against vancomycin-resistant Enterococcus faecalis clinical isolates after 20 hrs by twofold serial broth dilution method; format: functional
[8] = Cytotoxicity against human HaCaT cells assessed as cell survival at 16 uM after 24 hrs by MTT assay; format: cell-based; conditions: read-out: Survival
[9] = system: HaCaT; experiment: Cytotoxicity against human HaCaT cells assessed as cell morphology at 100 uM after 24 hrs by phase contrast microscopy; format: cell-based
[10] = system: HaCaT; experiment: Cytotoxicity against human HaCaT cells assessed as cell survival at 100 uM after 24 hrs by MTT assay; format: cell-based

SMILES | MIC [1] [µM] | MIC [2] [µM] | MIC [3] [µM] | solubility [4] | MIC [5] [µM] | K [6] | MIC [7] [µM] | viability at 24 h, 16 µM [8] [%] | Activity [9] | Activity [10]
O=c1c(O)c(-c2ccccc2)oc2ccc(O)cc12 | 16 (≈ 4.07 µg/mL) | 128 (≈ 32.5 µg/mL) | 16 (≈ 4.07 µg/mL) | Insoluble | > 1020 | 1.32 ×10⁴ /M | 256 (≈ 65.1 µg/mL) | 90 | – | –
COc1ccc(-c2coc3cc(O[C@@H]4O[C@H](CO)[C@@H](O)[C@@H](O)[C@@H]4O)cc(O)c3c2=O)cc1 | > 1020 | > 1020 | > 1020 | – | > 1020 | 5.6 ×10⁶ /M | > 1020 | – | – | –
O=c1c(O)c(-c2ccc(O)cc2)oc2ccc(O)cc12 | > 1020 | > 1020 | > 1020 | – | > 1020 | 6.22 ×10⁶ /M | > 1020 | – | – | –
O=C(CCc1ccc(O)cc1)c1c(O)cc(O)cc1O [PHLORETIN] | 16 (≈ 4.39 µg/mL) | 128 (≈ 35.1 µg/mL) | 32 (≈ 8.78 µg/mL) | – | 128 (≈ 35.1 µg/mL) | 2.38 ×10⁷ /M | 128 (≈ 35.1 µg/mL) | – | Not Active | Not Active
C=C/C(C)=C/[C@@]1(C)SC(=O)C(C)=C1O [THIOLACTOMYCIN] | 128 (≈ 26.9 µg/mL) | 256 (≈ 53.8 µg/mL) | 256 (≈ 53.8 µg/mL) | – | 128 (≈ 26.9 µg/mL) | 1.18 ×10⁴ /M | 128 (≈ 26.9 µg/mL) | – | – | –

From ChEMBL document CHEMBL1152427, “Antimicrobial natural products as beta-ketoacyl-acyl carrier protein synthase III inhibitors” (Bioorg Med Chem, 2009)
